# Tests used:
# [1] = system: wild oat; assay: Test B pre/postemergence wild oat; assay type: in vivo, Avena fatua
# Method in brief: (§1)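 Test chemicals in a non-phytotoxic solvent mixture with surfactant were sprayed preemergence onto planted seeds and postemergence onto plants 2 to 18 cm tall (1- to 4-leaf stage). After twelve to sixteen days in a greenhouse, injury was visually rated against untreated controls from 0 (no effect) to 10 (complete control).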
# [2] = system: duck salad; assay: Test B flood test duck salad; assay type: in vivo, Heteranthera limosa
# Method in brief: (§2)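 Plants were grown to the 2-leaf stage before treatment with test chemical, then held in a greenhouse for twelve to sixteen days. Injury was visually rated against untreated controls on a 0–10 scale, where 0 is no effect and 10 is complete control.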
# [3] = system: wheat; assay: Test B pre/postemergence wheat; assay type: in vivo, Triticum aestivum
# Method in brief: as §1
# [4] = system: bedstraw; assay: Test B pre/postemergence bedstraw; assay type: in vivo, Galium aparine; conditions: for Bedstraw plant response rating: scale of 0 to 10 where 0 is no effect and 10 is complete control
# Method in brief: as §1
# [5] = system: blackgrass; assay: Test B pre/postemergence blackgrass; assay type: in vivo, Alopecurus myosuroides
# Method in brief: as §1
# [6] = system: morningglory; assay: Test B pre/postemergence morningglory; assay type: in vivo, Ipomoea hederacea
# Method in brief: as §1
# [7] = system: corn; assay: Test B pre/postemergence corn; assay type: in vivo, Zea mays
# Method in brief: as §1
# [8] = system: giant foxtail; assay: Test B pre/postemergence giant foxtail; assay type: in vivo, Setaria faberii
# Method in brief: as §1
# [9] = system: rape; assay: Test B pre/postemergence rape; assay type: in vivo, Brassica napus
# Method in brief: as §1
# [10] = system: smallflower flatsedge; assay: Test B flood test smallflower flatsedge; assay type: in vivo, Cyperus difformis
# Method in brief: as §2
# [11] = system: rice; assay: Test B flood test rice; assay type: in vivo, Oryza sativa
# Method in brief: as §2
# [12] = system: purple nutsedge; assay: Test B pre/postemergence purple nutsedge; assay type: in vivo, Cyperus rotundus
# Method in brief: as §1
# [13] = system: surinam grass; assay: Test B pre/postemergence surinam grass; assay type: in vivo, Brachiaria decumbens
# Method in brief: as §1
# [14] = system: sugar beet; assay: Test B pre/postemergence sugar beet; assay type: in vivo, Beta vulgaris
# Method in brief: as §1
# [15] = system: cocklebur; assay: Test B pre/postemergence cocklebur; assay type: in vivo, Xanthium strumarium
# Method in brief: as §1
# [16] = system: soybean; assay: Test B pre/postemergence soybean; assay type: in vivo, Glycine max
# Method in brief: as §1
# [17] = system: velvetleaf; assay: Test B pre/postemergence velvetleaf; assay type: in vivo, Abutilon theophrasti
# Method in brief: as §1
# [18] = system: pigweed; assay: Test B pre/postemergence pigweed; assay type: in vivo, Amaranthus retroflexus
# Method in brief: as §1
# [19] = system: bamyardgrass; assay: Test B flood test barnyardgrass; assay type: in vivo, Echinochloa crus-galli
# Method in brief: as §2
# [20] = system: crabgrass; assay: Test B pre/postemergence crabgrass; assay type: in vivo, Digitaria sanguinalis
# Method in brief: as §1
# [21] = Preemergence, Rate 62 g/ha, scale of 0 to 10 where 0 is no effect and 10 is complete control
# [22] = Preemergence, Rate 250 g/ha, scale of 0 to 10 where 0 is no effect and 10 is complete control
# [23] = Preemergence, Rate 500 g/ha, scale of 0 to 10 where 0 is no effect and 10 is complete control
# [24] = Rate 62 g/ha, Postemergence, scale 0 to 10 (0 no effect, 10 complete control)
# [25] = Rate 125 g/ha, Postemergence, scale of 0 to 10 where 0 is no effect and 10 is complete control
# [26] = Rate 250 g/ha, Postemergence, scale of 0 to 10 where 0 is no effect and 10 is complete control
# [27] = Rate 62 g/ha, headed Pre-emergence (flood test species), scale 0 to 10 (0 no effect, 10 complete control)
# [28] = Rate 125 g/ha, Pre-emergence, flood test species, scale 0 to 10 where 0 is no effect and 10 is complete control
# [29] = Rate 250 g/ha, Pre-emergence, flood-test species, scale 0 to 10, 0 is no effect, 10 is complete control
# [30] = Rate 500 g/ha, Pre-emergence, flood test species, scale 0 to 10 (0 no effect, 10 complete control)
# [31] = Rate 500 g/ha, Postemergence, scale 0 to 10, 0 no effect, 10 complete control
smiles,measurement,setting,value
CC(C)C(C)n1c(=O)on(C(=O)N(c2ccc(F)cc2)C(C)C)c1=O (stereo not shown) [Compound 316],Wild oats plant response rating,[1]; [21],4
same,Wild oats plant response rating (0 to 10 scale),"[1]; Preemergence, Rate 125 g/ha",4
same,Wild oats plant response rating,[1]; [22],6
same,Wild oats plant response rating,[1]; [23],6
same,Wild oats plant response rating,[1]; [24],0
same,Wild oats plant response rating,[1]; [25],0
same,"Plant response rating, Wild oats",[1]; [26],2
same,Ducksalad plant response rating,[2]; [27],0
same,Ducksalad plant response rating,[2]; [28],0
same,Ducksalad plant response rating,[2]; [29],3
same,Ducksalad plant response rating,[2]; [30],0
same,Wheat plant response rating,[3]; [21],0
same,Wheat plant response rating (0 to 10 scale),"[3]; Preemergence, Rate 125 g/ha",0
same,Wheat plant response rating,[3]; [22],2
same,Wheat plant response rating,[3]; [23],2
same,Wheat plant response rating,[3]; [24],0
same,Wheat plant response rating,[3]; [25],0
same,"Plant response rating, Wheat",[3]; [26],2
same,Bedstraw plant response rating,"[4]; Preemergence, Rate 62 g/ha",0
same,Bedstraw plant response rating (0 to 10 scale),"[4]; Preemergence, Rate 125 g/ha",0
same,Bedstraw plant response rating,"[4]; Preemergence, Rate 250 g/ha",3
same,Bedstraw plant response rating,"[4]; Preemergence, Rate 500 g/ha",6
same,Bedstraw plant response rating,"[4]; Rate 125 g/ha, Postemergence",2
same,Blackgrass plant response rating,[5]; [21],8
same,Blackgrass plant response rating (0 to 10 scale),"[5]; Preemergence, Rate 125 g/ha",10
same,Blackgrass plant response rating,[5]; [22],10
same,Blackgrass plant response rating,[5]; [23],10
same,Blackgrass plant response rating,[5]; [24],0
same,Blackgrass plant response rating,[5]; [25],1
same,"Plant response rating, Blackgrass",[5]; [26],4
same,Blackgrass plant response rating,[5]; [31],7
same,Morningglory plant response rating,[6]; [21],0
same,Morningglory plant response rating (0 to 10 scale),"[6]; Preemergence, Rate 125 g/ha",0
same,Morningglory plant response rating,[6]; [22],0
same,Morningglory plant response rating,[6]; [23],0
same,Morningglory plant response rating,[6]; [24],3
same,Morningglory plant response rating,[6]; [25],4
same,"Plant response rating, Morningglory",[6]; [26],5
same,Corn plant response rating,[7]; [21],0
same,Corn plant response rating (0 to 10 scale),"[7]; Preemergence, Rate 125 g/ha",0
same,Corn plant response rating,[7]; [22],0
same,Corn plant response rating,[7]; [23],5
same,Corn plant response rating,[7]; [24],0
same,Corn plant response rating,[7]; [25],0
same,"Plant response rating, Corn",[7]; [26],0
same,Corn plant response rating,[7]; [31],0
same,Giant foxtail plant response rating,[8]; [21],9
same,Giant foxtail plant response rating (0 to 10 scale),"[8]; Preemergence, Rate 125 g/ha",10
same,Giant foxtail plant response rating,[8]; [22],10
same,Giant foxtail plant response rating,[8]; [23],10
same,Giant foxtail plant response rating,[8]; [24],0
same,Giant foxtail plant response rating,[8]; [25],0
same,"Plant response rating, Giant foxtail",[8]; [26],2
same,Rape plant response rating,[9]; [21],0
same,Rape plant response rating (0 to 10 scale),"[9]; Preemergence, Rate 125 g/ha",0
same,Rape plant response rating,[9]; [22],4
same,Rape plant response rating,[9]; [23],4
same,Rape plant response rating,[9]; [24],0
same,Rape plant response rating,[9]; [25],0
same,"Plant response rating, Rape",[9]; [26],1
same,S. Flatsedge plant response rating,[10]; [27],0
same,S. Flatsedge plant response rating,[10]; [28],0
same,S. Flatsedge plant response rating,[10]; [29],9
same,S. Flatsedge plant response rating,[10]; [30],9
same,Rice plant response rating,[11]; [27],0
same,Rice plant response rating,[11]; [28],0
same,Rice plant response rating,[11]; [29],1
same,Rice plant response rating,[11]; [30],0
same,Nutsedge plant response rating,[12]; [21],0
same,Nutsedge plant response rating (0 to 10 scale),"[12]; Preemergence, Rate 125 g/ha",0
same,Nutsedge plant response rating,[12]; [24],0
same,Nutsedge plant response rating,[12]; [25],0
same,"Plant response rating, Nutsedge",[12]; [26],0
same,B. signalgrass plant response rating,[13]; [21],6
same,"B. signalgrass plant response rating (0 to 10 scale, 0 is no effect, 10 is complete control)","[13]; Preemergence, Rate 125 g/ha",7
same,B. signalgrass plant response rating,[13]; [22],9
same,B. signalgrass plant response rating,[13]; [23],9
same,B. signalgrass plant response rating,[13]; [24],0
same,B. signalgrass plant response rating,[13]; [25],0
same,"Plant response rating, B. signalgrass",[13]; [26],0
same,B. signalgrass plant response rating,[13]; [31],2
same,Sugarbeets plant response rating,[14]; [21],0
same,Sugarbeets plant response rating (0 to 10 scale),"[14]; Preemergence, Rate 125 g/ha",0
same,Sugarbeets plant response rating,[14]; [22],0
same,Sugarbeets plant response rating,[14]; [23],4
same,Sugarbeets plant response rating,[14]; [24],0
same,Sugarbeets plant response rating,[14]; [25],0
same,"Plant response rating, Sugarbeets",[14]; [26],0
same,Cocklebur plant response rating,[15]; [21],0
same,Cocklebur plant response rating,[15]; [22],0
same,Cocklebur plant response rating,[15]; [23],2
same,Cocklebur plant response rating,[15]; [24],0
same,Cocklebur plant response rating,[15]; [25],0
same,"Plant response rating, Cocklebur",[15]; [26],0
same,Cocklebur plant response rating,[15]; [31],0
same,Soybean plant response rating,[16]; [21],0
same,Soybean plant response rating (0 to 10 scale),"[16]; Preemergence, Rate 125 g/ha",0
same,Soybean plant response rating,[16]; [22],0
same,Soybean plant response rating,[16]; [23],0
same,Soybean plant response rating,[16]; [24],3
same,Soybean plant response rating,[16]; [25],3
same,"Plant response rating, Soybean",[16]; [26],4
same,Velvetleaf plant response rating,[17]; [21],0
same,Velvetleaf plant response rating (0 to 10 scale),"[17]; Preemergence, Rate 125 g/ha",2
same,Velvetleaf plant response rating,[17]; [22],3
same,Velvetleaf plant response rating,[17]; [23],6
same,Velvetleaf plant response rating,[17]; [24],0
same,Velvetleaf plant response rating,[17]; [25],0
same,"Plant response rating, Velvetleaf",[17]; [26],2
same,Redroot pigweed plant response rating,[18]; [21],4
same,Redroot pigweed plant response rating (0 to 10 scale),"[18]; Preemergence, Rate 125 g/ha",6
same,Redroot pigweed plant response rating,[18]; [22],10
same,Redroot pigweed plant response rating,[18]; [23],10
same,Redroot pigweed plant response rating,[18]; [24],2
same,Redroot pigweed plant response rating,[18]; [25],2
same,"Plant response rating, Redroot pigweed",[18]; [26],3
same,Barnyardgrass plant response rating,[19]; [27],3
same,Barnyardgrass plant response rating,[19]; [28],6
same,Barnyardgrass plant response rating,[19]; [29],9
same,Barnyardgrass plant response rating,[19]; [30],9
same,Crabgrass plant response rating,[20]; [21],6
same,Crabgrass plant response rating (0 to 10 scale),"[20]; Preemergence, Rate 125 g/ha",8
same,Crabgrass plant response rating,[20]; [22],8
same,Crabgrass plant response rating,[20]; [23],10
same,Crabgrass plant response rating,[20]; [24],0
same,Crabgrass plant response rating,[20]; [25],0
same,"Plant response rating, Crabgrass",[20]; [26],0
